Data taken from US8410302B2, “Methoxyimino compounds and fungicide composition comprising same” (Kyung Nong Corporation, priority 2007, dated 2013).

Assays:
Botrytis cinerae = test: Fungicidal activity against cucumber gray mold rot (CGM) disease, control value; assay type: in vivo; conditions: Botrytis, read-out: CGM control value (C.V.)
Erysiphae graminis = test: Fungicidal activity against barley powdery mildew (BPM) disease, control value; assay type: in vivo; conditions: 168 h, read-out: BPM control value (C.V.)
Phytophthora infestans = test: whole plant or invertebrate; assay type: in vivo; conditions: Phytophthora infestans, in Solanum lycopersicum, read-out: TLB control value (C.V.)
[1] = tested on: Pyricularia oryzae Carvara KA301; test: whole plant or invertebrate; assay type: in vivo; conditions: Pyricularia oryzae, read-out: RCB control value (C.V.)
Rhizoctonia solani AG-1 = test: Fungicidal activity against rice sheath blight (RSB) disease, control value; conditions: Rhizoctonia solani, AG1, in Oryza sativa, read-out: RSB control value (C.V.)
Puccinia recondita = test: Fungicidal activity against wheat leaf rust (WLR) disease, control value; assay type: in vivo; conditions: Puccinia recondita, read-out: WLR control value (C.V.)

Row | Compound | pest or weed control at 100 ppm (Botrytis cinerae) [%] | pest or weed control at 2 ppm (Erysiphae graminis) [%] | pest or weed control at 10 ppm (Erysiphae graminis) [%] | pest or weed control at 50 ppm (Erysiphae graminis) [%] | pest or weed control at 100 ppm (Erysiphae graminis) [%] | pest or weed control at 2 ppm (Phytophthora infestans) [%] | pest or weed control at 10 ppm (Phytophthora infestans) [%] | pest or weed control at 50 ppm (Phytophthora infestans) [%] | pest or weed control at 100 ppm (Phytophthora infestans) [%] | pest or weed control at 2 ppm [1] [%] | pest or weed control at 10 ppm [1] [%] | pest or weed control at 50 ppm [1] [%] | pest or weed control at 100 ppm [1] [%] | pest or weed control at 2 ppm (Rhizoctonia solani AG-1) [%] | pest or weed control at 10 ppm (Rhizoctonia solani AG-1) [%] | pest or weed control at 50 ppm (Rhizoctonia solani AG-1) [%] | pest or weed control at 100 ppm (Rhizoctonia solani AG-1) [%] | pest or weed control at 2 ppm (Puccinia recondita) [%] | pest or weed control at 10 ppm (Puccinia recondita) [%] | pest or weed control at 50 ppm (Puccinia recondita) [%] | further results
1 | CNC(=O)/C(=N/OC)c1ccccc1COc1ccc(F)cc1C=C(Cl)Cl [Example 56, (E)-2-(2-((2-(2,2-dichlorovinyl)-4-fluorophenoxy)methyl)phenyl)-2-methoxyimino-N-methylacetamide] | 65 | 100 | 100 | 100 | 100 | 95 | 100 | 100 | 100 | 97 | 100 | 100 | 100 | 95 | 100 | 100 | 100 | 100 | 100 | 100 | pest or weed control at 50 ppm (Botrytis cinerae): 20%; pest or weed control at 100 ppm (Puccinia recondita): 100%
2 | CO/N=C(/C(=O)OC)c1ccccc1COc1ccc(C=C(Cl)Cl)c(Cl)c1 [Example 57, methyl-(E)-2-(2-((3-chloro-4-(2,2-dichlorovinyl)phenoxy)methyl)phenyl)-2-methoxyiminoacetate] | 75 | 100 | 100 | 100 | 100 | 99 | 100 | 100 | 100 | 90 | 100 | 100 | 100 | 90 | 100 | 100 | 100 | 95 | 100 | 100 | pest or weed control at 50 ppm (Botrytis cinerae): 20%; pest or weed control at 100 ppm (Puccinia recondita): 100%
3 | CNC(=O)/C(=N/OC)c1ccccc1COc1ccc(C=C(Cl)Cl)c(Cl)c1 [Example 58, (E)-2-(2-((3-chloro-4-(2,2-dichlorovinyl)phenoxy)methyl)phenyl)-2-methoxyimino-N-methylacetamide] | 35 | 100 | 100 | 100 | 100 | 99 | 100 | 100 | 100 | 100 | 100 | 100 | 100 | 90 | 100 | 100 | 100 | 100 | 100 | 100 | pest or weed control at 100 ppm (Puccinia recondita): 100%
4 | CCOc1cc(C=C(Cl)Cl)ccc1OCc1ccccc1/C(=N\OC)C(=O)OC [Example 59, methyl-(E)-2-(2-((4-(2,2-dichlorovinyl)-2-ethoxyphenoxy)methyl)phenyl)-2-methoxyiminoacetate] | 65 | 98 | 100 | 100 | 100 | 98 | 100 | 100 | 100 | 97 | 100 | 100 | 100 | 98 | 100 | 100 | 100 | 90 | 100 | 100 | pest or weed control at 100 ppm (Puccinia recondita): 100%
5 | CCOc1cc(C=C(Cl)Cl)ccc1OCc1ccccc1/C(=N\OC)C(=O)NC [Example 60, (E)-2-(2-((4-(2,2-dichlorovinyl)-2-ethoxyphenoxy)methyl)phenyl)-2-methoxyimino-N-methylacetamide] | 45 | 95 | 98 | 100 | 100 | 70 | 92 | 95 | 100 | 80 | 96 | 100 | 100 | 98 | 100 | 100 | 100 | 95 | 100 | 100 | pest or weed control at 100 ppm (Puccinia recondita): 100%
6 | CO/N=C(/C(=O)OC)c1ccccc1COc1cc(Br)ccc1C=C(Cl)Cl [Example 61, methyl-(E)-2-(2-((5-bromo-2-(2,2-dichlorovinyl)phenoxy)methyl)phenyl)-2-methoxyiminoacetate] | 85 | 100 | 100 | 100 | 100 | 99 | 100 | 100 | 100 | 99 | 100 | 100 | 100 | 95 | 100 | 100 | 100 | 100 | 100 | 100 | pest or weed control at 50 ppm (Botrytis cinerae): 40%; pest or weed control at 100 ppm (Puccinia recondita): 100%
7 | CNC(=O)/C(=N/OC)c1ccccc1COc1cc(Br)ccc1C=C(Cl)Cl [Example 62, (E)-2-(2-((5-bromo-2-(2,2-dichlorovinyl)phenoxy)methyl)phenyl)-2-methoxyimino-N-methylacetamide] | 85 | 99 | 100 | 100 | 100 | 99 | 100 | 100 | 100 | 90 | 99 | 100 | 100 | 93 | 100 | 100 | 100 | 100 | 100 | 100 | pest or weed control at 50 ppm (Botrytis cinerae): 30%; pest or weed control at 100 ppm (Puccinia recondita): 100%
8 | CO/N=C(/C(=O)OC)c1ccccc1COc1ccc(C=C(Br)Br)cc1Cl [Example 63, methyl-(E)-2-(2-((4-(2,2-dibromovinyl)-2-chlorophenoxy)methyl)phenyl)-2-methoxyiminoacetate] | 75 | 100 | 100 | 100 | 100 | 99 | 100 | 100 | 100 | 100 | 100 | 100 | 100 | 90 | 100 | 100 | 100 | 100 | 100 | 100 | pest or weed control at 50 ppm (Botrytis cinerae): 20%; pest or weed control at 100 ppm (Puccinia recondita): 100%
9 | CNC(=O)/C(=N/OC)c1ccccc1COc1ccc(C=C(Br)Br)cc1Cl [Example 64, (E)-2-(2-((4-(2,2-dibromovinyl)-2-chlorophenoxy)methyl)phenyl)-2-methoxyimino-N-methylacetamide] | 80 | 97 | 100 | 100 | 100 | 99 | 100 | 100 | 100 | 100 | 100 | 100 | 100 | 95 | 100 | 100 | 100 | 100 | 100 | 100 | pest or weed control at 50 ppm (Botrytis cinerae): 40%; pest or weed control at 100 ppm (Puccinia recondita): 100%
